Measured values from patent publication US7947285B2, “Methods for preventing post endoscopic retrograde cholangiopancreatography pancreatitis” (priority 2003, dated 2011).
Where no end group is shown, it is not given here.

Tested on: patients undergoing ERCP
Assay: Pain, nausea and vomiting scores pre and post ERCP (0-10 scale)
Format: in vivo, human
Description: Incidence of post-ERCP pancreatitis (sPS vs. placebo) was evaluated as the primary efficacy variable in this study. Secondary efficacy variables included incidences of post-ERCP pancreatitis in the following sub-populations: (1) cannulation of CBD; (2) sphincterotomy of CBD; (3) cannulation of pancreatic duct; (4) sphincterotomy of pancreatic duct; (5) stent insertion and removal into CBD; (6) stent insertion and removal into pancreatic duct; (7) stone extraction (basket) from CBD; (8) stone extraction (balloon) from CBD; (9) manometry of CBD; (10) manometry of pancreatic duct; (11) pain scores pre and post ERCP (0-10 scale); (12) nausea scores pre and post ERCP (0-10 scale); (13) vomiting scores pre and post ERCP (0-10 scale); (14) return to baseline activity (pre-ERCP); and (15) return to work.
Primary and secondary efficacy variables were compared between the treatment groups using the Fisher Exact Test or Cochran-Mantel Haenszel Association Test. Adverse events and vital signs (heart rate, blood pressure) were compared between the treatment groups using the t-test. The clinical assumption on which the power calculation is based was on incidence of post-ERCP pancreatitis among all patients without pancreas divisum of 6%. In order to show a 50% reduction in the rate of post-ERCP pancreatitis with a significance of p=0.05, at a power of 80%, 749 evaluable patients per treatment group (sPS vs. placebo) were needed.
Additional secondary efficacy analyses were performed on post-ERCP pain, nausea, and vomiting using a 0 to 10 digital scale. There were no significant differences between the treatment groups for baseline (pre procedure) pain, nausea and vomiting. There were also no significant differences in these variables post-ERCP although there was a slight numerical trend indicating less nausea for sPS ([…]).

**Q.** What does the source list for “synthetic porcine secretin (HSDGTFTSELSRLRDSARLQRLLQGLV-NH2; ends and bridges not checked; UniProt P63298 33-59, looked up) [SPS, synthetic form of porcine secretin, a 27 amino acid gastrointestinal peptide hormone]”?
**A.** Nausea post-ERCP, Mean (SD) (N = 485): 0.9 (2.1) (N = 485); Pain Post-ERCP, Mean (SD) (N = 485): 1.8 (3.0) (N = 485); Vomiting post-ERCP, Mean (SD) (N = 485): 0.6 (1.9) (N = 485); Vomiting pre-ERCP, Mean (SD) (baseline, N = 482): 0.1 (0.8) (N = 482); Nausea Pre-ERCP, Mean (SD) (baseline, N = 483): 0.6 (1.7) (N = 483); Pain Pre-ERCP, Mean (SD) (baseline, N = 483): 1.4 (0.6) (N = 483); Change in Vomiting, Mean (SD) (pre to post ERCP, N = 479, p 0.0776): 0.5 (2.0) (N = 479); Change in Nausea, Mean (SD) (pre to post ERCP, N = 480, p 0.0284): 0.3 (2.5) (N = 480); Change in Pain, Mean (SD) (pre to post ERCP, N = 480, p 0.0668): 0.4 (3.4) (N = 480)
